From patent US9670227B2, “Thienopyrimidine derivatives, a process for their preparation and pharmaceutical compositions containing them” (LES LABORATOIRES SERVIER, priority 2013, dated 2017)
Like-named read-outs stand apart in the source and are kept apart here.

Legend:
Mcl-1 protein = Mcl-1 protein (UniProtKB primary accession number: Q07820) (Homo sapiens, UniProt Q07820); assay: Inhibition of Mcl-1 by fluorescence polarisation, Method 1; type: binding; conditions: for IC50: read-out: IC50 (M) Mcl-1 FP
In short: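 FP readout of relative binding potency. Mcl-1 5 nM final, fluorescein-labelled ligand 1 nM final; buffer 10 mM HEPES, 150 mM NaCl, 0.05% Tween 20, pH 7.4; 11-pt dilution series, 5% DMSO final.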

[1] = tested on: H929 multiple myeloma tumour line; assay: In vitro cytotoxicity, Microculture Tetrazolium Assay; type: cell-based; conditions: H929 cells, 48 hours exposure, MTT, read-out: IC50 (μM) MTT H929
Protocol: The cytotoxicity studies were carried out on the H929 multiple myeloma tumour line.
The cells are distributed onto microplates and exposed to the test compounds for 48 hours.

[2] = fluorescence polarisation test, Method 2 values are underlined in the patent (underlining not visible here)
[3] = fluorescence polarisation, Method 1, or Method 2

Chain of Mcl-1 protein (Q07820 whole entry): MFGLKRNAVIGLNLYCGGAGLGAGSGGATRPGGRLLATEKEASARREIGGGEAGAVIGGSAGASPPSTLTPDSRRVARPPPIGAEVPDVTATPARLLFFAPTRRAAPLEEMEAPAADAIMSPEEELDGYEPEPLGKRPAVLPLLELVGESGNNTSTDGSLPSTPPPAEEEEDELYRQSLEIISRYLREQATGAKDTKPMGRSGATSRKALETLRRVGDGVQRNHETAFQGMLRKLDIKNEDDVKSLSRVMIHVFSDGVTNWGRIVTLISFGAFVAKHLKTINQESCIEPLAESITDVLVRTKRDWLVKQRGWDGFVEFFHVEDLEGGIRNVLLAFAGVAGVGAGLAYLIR

Compound	IC50 (Mcl-1 protein; [2])	percentage fluorescence polarisation inhibition, Mcl-1 FP (Mcl-1 protein; partial inhibitors, @ 10 uM test compound)	IC50 (Mcl-1 protein; [3])	IC50 ([1]; Homo sapiens, NCI-H929, 48 h)	IC50 [1]
COCCSc1nccc(COc2ccccc2CC(Oc2ncnc3sc(-c4ccc(F)cc4)c(-c4ccc(OCCN5CCN(C)CC5)c(Cl)c4C)c23)C(=O)O)n1 [Example 67, (2R)-2-{[(5Sa)-5-{3-chloro-2-methyl-4-[2-(4-methylpiperazin-1-yl)ethoxy]phenyl}-6-(4-fluorophenyl)thieno[2,3-d]pyrimidin-4-yl]oxy}-3-[2-({2-[(2-methoxyethyl)sulfanyl]pyrimidin-4-yl}methoxy)phenyl]propanoic acid]	3.4e-09 M	–	–	0.03 µM	–
CCCCCn1nccc1COc1ccccc1CC(Oc1ncnc2sc(-c3ccc(F)cc3)c(-c3ccc(OCCN4CCN(C)CC4)c(Cl)c3C)c12)C(=O)O [Example 85, (2R)-2-{[(5Sa)-5-{3-chloro-2-methyl-4-[2-(4-methylpiperazin-1-yl)ethoxy]phenyl}-6-(4-fluorophenyl)thieno[2,3-d]pyrimidin-4-yl]oxy}-3-{2-[(1-pentyl-1H-pyrazol-5-yl)methoxy]phenyl}propanoic acid]	3.6e-09 M	–	–	0.063 µM	–
Cc1c(-c2c(-c3ccco3)sc3ncnc(OC(Cc4ccccc4OCc4cccs4)C(=O)O)c23)ccc(OCCN2CCN(C)CC2)c1Cl [Example 245, (2R)-2-{[(5Sa)-5-{3-chloro-2-methyl-4-[2-(4-methylpiperazin-1-yl)ethoxy]phenyl}-6-(furan-2-yl)thieno[2,3-d]pyrimidin-4-yl]oxy}-3-[2-(thiophen-2-ylmethoxy)phenyl]propanoic acid]	5.8e-09 M	–	–	0.099 µM	–
Cc1c(-c2c(-c3ccc(F)cc3)sc3ncnc(OC(Cc4ccccc4OCc4cccc(N5CCOCC5)n4)C(=O)O)c23)ccc(OCCN2CCN(C)CC2)c1Cl [Example 12, (2R)-2-{[(5Sa)-5-{3-chloro-2-methyl-4-[2-(4-methylpiperazin-1-yl)ethoxy]phenyl}-6-(4-fluorophenyl)thieno[2,3-d]pyrimidin-4-yl]oxy}-3-(2-{[6-(morpholin-4-yl)pyridin-2-yl]methoxy}phenyl)propanoic acid]	1.6e-08 M	–	–	0.076 µM	–
Cc1c(-c2c(-c3ccco3)sc3ncnc(OC(Cc4ccccc4OCc4ccnn4C(C)C)C(=O)O)c23)ccc(OCCN2CCN(C)CC2)c1Cl [Example 261, (2R)-2-{[(5Sa)-5-{3-chloro-2-methyl-4-[2-(4-methylpiperazin-1-yl)ethoxy]phenyl}-6-(furan-2-yl)thieno[2,3-d]pyrimidin-4-yl]oxy}-3-(2-{[1-(propan-2-yl)-1H-pyrazol-5-yl]methoxy}phenyl)propanoic acid]	1.7e-09 M	–	–	0.018 µM	–
CCc1nccc(COc2ccccc2CC(Oc2ncnc3sc(-c4ccc(F)cc4)c(-c4ccc(OCCN5CCN(C)CC5)c(Cl)c4C)c23)C(=O)O)n1 [Example 37, (2R)-2-{[(5Sa)-5-{3-chloro-2-methyl-4-[2-(4-methylpiperazin-1-yl)ethoxy]phenyl}-6-(4-fluorophenyl)thieno[2,3-d]pyrimidin-4-yl]oxy}-3-{2-[(2-ethylpyrimidin-4-yl)methoxy]phenyl}propanoic acid]	6e-09 M	–	–	0.014 µM	–
CCn1nccc1COc1ccccc1CC(Oc1ncnc2sc(-c3ccc(F)o3)c(-c3ccc(OCCN(C)C)c(Cl)c3C)c12)C(=O)O [Example 204, (2R)-2-{[(5Sa)-5-{3-chloro-4-[2-(dimethylamino)ethoxy]-2-methylphenyl}-6-(5-fluorofuran-2-yl)thieno[2,3-d]pyrimidin-4-yl]oxy}-3-{2-[(1-ethyl-1H-pyrazol-5-yl)methoxy]phenyl}propanoic acid]	4.9e-09 M	–	–	0.034 µM	–
Cc1c(-c2c(-c3ccco3)sc3ncnc(OC(Cc4ccccc4OCc4ccc5ccccc5n4)C(=O)O)c23)ccc(OCCN2CCN(C)CC2)c1Cl [Example 234, (2R)-2-{[(5Sa)-5-{3-chloro-2-methyl-4-[2-(4-methylpiperazin-1-yl)ethoxy]phenyl}-6-(furan-2-yl)thieno[2,3-d]pyrimidin-4-yl]oxy}-3-[2-(quinolin-2-ylmethoxy)phenyl]propanoic acid]	1.1e-08 M	–	–	0.135 µM	–
Cc1c(-c2c(-c3ccc(F)cc3)sc3ncnc(OC(Cc4ccccc4OCc4ccnn4C4CCCCC4)C(=O)O)c23)ccc(OCCN2CCN(C)CC2)c1Cl [Example 73, (2R)-2-{[(5Sa)-5-{3-chloro-2-methyl-4-[2-(4-methylpiperazin-1-yl)ethoxy]phenyl}-6-(4-fluorophenyl)thieno[2,3-d]pyrimidin-4-yl]oxy}-3-{2-[(1-cyclohexyl-1H-pyrazol-5-yl)methoxy]phenyl}propanoic acid]	8.3e-09 M	–	–	0.122 µM	–
COCCOc1ccccc1CC(Oc1ncnc2sc(-c3ccc(F)cc3)c(-c3ccc(OCCN4CCN(C)CC4)c(Cl)c3C)c12)C(=O)O [Example 104, (2R)-2-{[(5Sa)-5-{3-chloro-2-methyl-4-[2-(4-methylpiperazin-1-yl)ethoxy]phenyl}-6-(4-fluorophenyl)thieno[2,3-d]pyrimidin-4-yl]oxy}-3-[2-(2-methoxyethoxy)phenyl]propanoic acid]	7.5e-09 M	–	–	0.386 µM	–
Cc1c(-c2c(-c3ccco3)sc3ncnc(OC(Cc4ccccc4OCC(F)(F)F)C(=O)O)c23)ccc(OCCN2CCN(C)CC2)c1Cl [Example 221, (2R)-2-{[(5Sa)-5-{3-chloro-2-methyl-4-[2-(4-methylpiperazin-1-yl)ethoxy]phenyl}-6-(furan-2-yl)thieno[2,3-d]pyrimidin-4-yl]oxy}-3-[2-(2,2,2-trifluoroethoxy)phenyl]propanoic acid]	6.3e-09 M	–	–	0.059 µM	–

The next lines start with results.

IC50 (Mcl-1 protein; [2])	percentage fluorescence polarisation inhibition, Mcl-1 FP (Mcl-1 protein; partial inhibitors, @ 10 uM test compound)	IC50 (Mcl-1 protein; [3])	Compound	IC50 ([1]; Homo sapiens, NCI-H929, 48 h)	IC50 [1]
1.2e-08 M	–	–	Cc1c(-c2c(-c3ccco3)sc3ncnc(OC(Cc4ccccc4OCCC(F)(F)F)C(=O)O)c23)ccc(OCCN2CCN(C)CC2)c1Cl [Example 288, (2R)-2-{[(5Sa)-5-{3-chloro-2-methyl-4-[2-(4-methylpiperazin-1-yl)ethoxy]phenyl}-6-(furan-2-yl)thieno[2,3-d]pyrimidin-4-yl]oxy}-3-[2-(3,3,3-trifluoropropoxy)phenyl]propanoic acid]	0.086 µM	–
5.1e-09 M	–	–	Cc1c(-c2c(-c3ccc(Cl)o3)sc3ncnc(OC(Cc4ccccc4OCC4CCCO4)C(=O)O)c23)ccc(OCCN2CCN(C)CC2)c1Cl [Example 364, (2R)-2-{[6-(5-chlorofuran-2-yl)-(5Sa)-5-{3-chloro-2-methyl-4-[2-(4-methylpiperazin-1-yl)ethoxy]phenyl}thieno[2,3-d]pyrimidin-4-yl]oxy}-3-{2-[(2R)-tetrahydrofuran-2-ylmethoxy]phenyl}propanoic acid]	0.052 µM	–
3.8e-09 M	–	–	Cc1c(-c2c(-c3ccc(Cl)o3)sc3ncnc(OC(Cc4ccccc4OCC4CCCO4)C(=O)O)c23)ccc(OCCN2CCN(C)CC2)c1Cl [Example 377, (2R)-2-{[6-(5-chlorofuran-2-yl)-(5Sa)-5-{3-chloro-2-methyl-4-[2-(4-methylpiperazin-1-yl)ethoxy]phenyl}thieno[2,3-d]pyrimidin-4-yl]oxy}-3-{2-[(2S)-tetrahydrofuran-2-ylmethoxy]phenyl}propanoic acid]	–	0.047 µM
1.2e-08 M	–	–	CCc1c(-c2c(-c3ccco3)sc3ncnc(OC(Cc4ccccc4OC)C(=O)O)c23)ccc(OCCN2CCN(C)CC2)c1Cl [Example 335, (2R)-2-{[(5Sa)-5-{3-chloro-2-ethyl-4-[2-(4-methylpiperazin-1-yl)ethoxy]phenyl}-6-(furan-2-yl)thieno[2,3-d]pyrimidin-4-yl]oxy}-3-(2-methoxyphenyl)propanoic acid]	0.217 µM	–
–	74.85% @ 10 uM	–	CCOC(=O)[C@@H](Cc1ccccc1OCc1ccnc(OC)n1)Oc1ncnc2sc(-c3ccc(F)o3)c(-c3ccc(OCCN4CCN(C)CC4)c(Cl)c3C)c12 [Example 625, ethyl (2R)-2-{[(5Sa)-5-{3-chloro-2-methyl-4-[2-(4-methylpiperazin-1-yl)ethoxy]phenyl}-6-(5-fluorofuran-2-yl)thieno[2,3-d]pyrimidin-4-yl]oxy}-3-{2-[(2-methoxypyrimidin-4-yl)methoxy]phenyl}propanoate]	–	0.62 µM
–	–	7.8e-09 M	COCCOc1cc(-c2sc3ncnc(OC(Cc4ccccc4OCc4ccnc(OC)n4)C(=O)O)c3c2-c2ccc(OCCN3CCN(C)CC3)c(Cl)c2C)ccc1F [Example 598, (2R)-2-[((5Sa)-5-{3-chloro-2-methyl-4-[2-(4-methylpiperazin-1-yl)ethoxy]phenyl}-6-[4-fluoro-3-(2-methoxyethoxy)phenyl]thieno[2,3-d]pyrimidin-4-yl)oxy]-3-{2-[(2-methoxypyrimidin-4-yl)methoxy]phenyl}propanoic acid]	0.097 µM	–
–	–	3.8e-08 M	C#Cc1ccc(-c2sc3ncnc(OC(Cc4ccccc4OC)C(=O)O)c3c2-c2ccc(OCCN3CCN(C)CC3)c(Cl)c2C)o1 [Example 578, (2R)-2-{[(5Sa)-5-{3-chloro-2-methyl-4-[2-(4-methylpiperazin-1-yl)ethoxy]phenyl}-6-(5-ethynylfuran-2-yl)thieno[2,3-d]pyrimidin-4-yl]oxy}-3-(2-methoxyphenyl)propanoic acid]	0.347 µM	–
5.1e-09 M	–	–	COc1nccc(COc2ccccc2CC(Oc2ncnc3sc(-c4ccc(Cl)o4)c(-c4ccc(OCCN5CCN(C)CC5)c(Cl)c4C)c23)C(=O)O)n1 [Example 369, (2R)-2-{[6-(5-chlorofuran-2-yl)-(5Sa)-5-{3-chloro-2-methyl-4-[2-(4-methylpiperazin-1-yl)ethoxy]phenyl}thieno[2,3-d]pyrimidin-4-yl]oxy}-3-{2-[(2-methoxypyrimidin-4-yl)methoxy]phenyl}propanoic acid]	0.009 µM	–
